From ChEMBL document CHEMBL1139432, “Aryl sulfones as novel bradykinin B1 receptor antagonists for treatment of chronic pain” (Bioorg Med Chem Lett, 2008)
pIC50, pKi: −log10 of the molar value.

Key:
B1 bradykinin receptor [1] = target: T1, B1 bradykinin receptor (Homo sapiens, UniProt P46663); assay: Displacement of [3H]DAK from human bradykinin B1 receptor expressed in clone CHO-D-/aequorin cells; assay type: cell-based
T1 sequence (P46663 whole entry): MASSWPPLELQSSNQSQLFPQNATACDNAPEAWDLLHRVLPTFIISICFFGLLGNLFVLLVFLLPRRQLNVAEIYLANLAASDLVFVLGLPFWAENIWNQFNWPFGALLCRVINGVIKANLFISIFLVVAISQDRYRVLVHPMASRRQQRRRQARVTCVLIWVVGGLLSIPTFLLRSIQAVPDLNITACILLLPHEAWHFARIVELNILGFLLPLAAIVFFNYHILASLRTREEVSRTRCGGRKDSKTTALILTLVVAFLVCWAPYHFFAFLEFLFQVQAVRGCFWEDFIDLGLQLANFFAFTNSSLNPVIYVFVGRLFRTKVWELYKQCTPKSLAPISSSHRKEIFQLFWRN

[2] = Metabolic stability in rat liver microsomes; assay type: ADME, Microsome; conditions: read-out: Stability
B1 bradykinin receptor [3] = target: T2, B1 bradykinin receptor (Oryctolagus cuniculus, UniProt P48748); assay: Antagonist activity at rabbit bradykinin B1 receptor expressed in clone CHO-D-/aequorin cells by aquerin based assay; assay type: functional, cell-based
T2 sequence (P48748 whole entry): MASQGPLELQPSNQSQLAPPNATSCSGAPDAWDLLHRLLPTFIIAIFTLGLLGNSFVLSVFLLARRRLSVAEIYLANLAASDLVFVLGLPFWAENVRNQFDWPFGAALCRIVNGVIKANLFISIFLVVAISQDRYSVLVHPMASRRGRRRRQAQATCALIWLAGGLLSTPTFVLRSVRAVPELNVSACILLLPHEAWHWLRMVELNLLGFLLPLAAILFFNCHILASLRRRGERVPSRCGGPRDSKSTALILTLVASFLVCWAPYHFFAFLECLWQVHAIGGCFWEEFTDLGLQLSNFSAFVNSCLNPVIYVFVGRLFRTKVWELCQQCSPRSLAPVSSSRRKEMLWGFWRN

B1 bradykinin receptor [4] = target: T1, B1 bradykinin receptor; assay: Antagonist activity at human bradykinin B1 receptor expressed in clone CHO-D-/aequorin cells by aquerin based assay; assay type: functional, cell-based
[5] = Metabolic stability in human liver microsomes; assay type: ADME, Microsome; conditions: read-out: Stability
Oryctolagus cuniculus = assay: Inhibition of des-Arg-Kallidin-induced hypotensive response in sc dosed rabbit; assay type: functional, organism-based; set-up: scale not given: the % may be the effect or the level left

Compound | pKi (B1 bradykinin receptor [1]) | microsomal CLint [2] | pIC50 (B1 bradykinin receptor [3]) | pIC50 (B1 bradykinin receptor [4]) | microsomal CLint [5] | Activity (Oryctolagus cuniculus)
O=C(N[C@@H]1CCCc2cc(CN3CCCCC3)ccc21)[C@H](O)[C@H](O)CS(=O)(=O)c1ccc(C(F)(F)F)cc1 | 7.32 | 50 µL/min/mg | 6.68 | 7.35 | 50 µL/min/mg | 
CC(C)(C)c1ccc(S(=O)(=O)C[C@@H](O)[C@@H](O)C(=O)N[C@@H]2CCCc3cc(CN4CCCCC4)ccc32)cc1 | 7.80 | 50 µL/min/mg | 7.60 | 8.35 | 296 µL/min/mg | 
CO[C@H](CCS(=O)(=O)c1ccc2ccccc2c1)C(=O)N[C@@H]1CCCc2cc(CN3CCCCC3)ccc21 |  | 237 µL/min/mg |  |  | 216 µL/min/mg | 
O=C(N[C@@H]1CCCc2cc(CN3CCCCC3)ccc21)[C@H](O)[C@H](O)CS(=O)(=O)c1cccc(Cl)c1 |  | 139 µL/min/mg |  |  | 180 µL/min/mg | 
O=C(C[C@@H](O)CS(=O)(=O)c1ccc2ccccc2c1)N[C@@H]1CCCc2cc(CN3CCCCC3)ccc21 | 7.00 |  |  | 6.97 |  | 
O=C(C[C@@H](NS(=O)(=O)c1cccc(C(F)(F)F)c1)c1ccc(F)cc1)N[C@@H]1CCOc2cc(CN3CCCCC3)ccc21 |  |  |  |  |  | 47%
O=C(N[C@@H]1CCCc2cc(CN3CCCCC3)ccc21)[C@H](O)CCS(=O)(=O)c1ccc2ccccc2c1 | 7.63 | 50 µL/min/mg |  | 7.30 | 100 µL/min/mg | 
O=C(CC(CS(=O)(=O)c1ccc2ccccc2c1)c1ccccc1)N[C@@H]1CCCc2cc(CN3CCCCC3)ccc21 (stereo not given in full) | 8.82 | 167 µL/min/mg |  | 7.86 | 744 µL/min/mg | 
O=C(C[C@H](O)CS(=O)(=O)c1ccc2ccccc2c1)N[C@@H]1CCCc2cc(CN3CCCCC3)ccc21 | 7.38 | 100 µL/min/mg |  | 7.31 | 112 µL/min/mg | 
CO[C@@H](CC(=O)N[C@@H]1CCCc2cc(CN3CCCCC3)ccc21)CS(=O)(=O)c1ccc2ccccc2c1 |  | 316 µL/min/mg |  |  | 274 µL/min/mg | 
O=C(N[C@@H]1CCCc2cc(CN3CCCCC3)ccc21)[C@H](O)[C@H](O)CS(=O)(=O)c1ccccc1 |  | 50 µL/min/mg |  |  | 319 µL/min/mg | 

More lines, main results first:

pKi (B1 bradykinin receptor [1]) | microsomal CLint [2] | pIC50 (B1 bradykinin receptor [3]) | pIC50 (B1 bradykinin receptor [4]) | microsomal CLint [5] | Compound | Activity (Oryctolagus cuniculus)
 | 572 µL/min/mg |  |  | 919 µL/min/mg | O=C(C[C@@H](NS(=O)(=O)c1ccc2ccccc2c1)c1ccccc1)N[C@@H]1CCCc2cc(CN3CCCCC3)ccc21 | 
 | 50 µL/min/mg |  |  | 50 µL/min/mg | Cc1ccc(S(=O)(=O)C[C@@H](O)[C@@H](O)C(=O)N[C@@H]2CCCc3cc(CN4CCCCC4)ccc32)cc1 | 
7.77 | 193 µL/min/mg | 7.69 | 7.77 | 100 µL/min/mg | O=C(N[C@@H]1CCCc2cc(CN3CCCCC3)ccc21)[C@H](O)[C@H](O)CS(=O)(=O)c1ccc(Cl)c(Cl)c1 | 
7.72 | 143 µL/min/mg |  | 7.51 | 100 µL/min/mg | O=C(N[C@@H]1CCCc2cc(CN3CCCCC3)ccc21)[C@@H](O)CCS(=O)(=O)c1ccc2ccccc2c1 | 
 | 100 µL/min/mg |  |  | 50 µL/min/mg | O=C(CCCS(=O)(=O)c1ccc2ccccc2c1)N[C@@H]1CCCc2cc(CN3CCCCC3)ccc21 | 
 | 50 µL/min/mg |  |  | 214 µL/min/mg | O=C(N[C@@H]1CCCc2cc(CN3CCCCC3)ccc21)[C@H](O)[C@H](O)CS(=O)(=O)c1cccc(Cl)c1Cl | 
